Reference: patent publication US11999794B2, “Human mesothelin chimeric antigen receptors and uses thereof” (Novartis AG, priority 2013, dated 2024)
“Also recorded” adds a separate entry of the source.

Experiments:
[1] = tested on: A/H1N1/California/07/2009; experiment: Anti-influenza IgG and IgM levels in serum; assay type: in vivo, human; conditions: vs placebo cohorts
Description: The trial was observer-blind because the placebo in the RAD001 0.5 mg daily and 20 mg weekly cohorts differed slightly from the RAD001 tablets in those cohorts. […] The treatment duration for all cohorts was 6 weeks during which time subjects underwent safety evaluations in the clinic every 2 weeks. After subjects had been dosed for 4 weeks, RAD001 steady state levels were measured pre-dose and at one hour post dose. […] Antibody titers to the 3 influenza vaccine strains as well as to 2 heterologous strains (A/H1N1 strain A/New Jersey/8/76 and A/H3N2 strain A/Victoria/361/11) were measured by standard hemagglutination inhibition assay (Kendal, A P et al. (1982) Concepts and procedures for laboratory-based influenza surveillance. Atlanta: Centers for Disease Control and Prevention B17-B35). Levels of IgG and IgM specific for the A/H1N1/California/07/2009 were measured in serum samples taken before and 4 weeks after influenza vaccination as described previously (Spensieri, F. et al. (2013) Proc. Natl. Acad. Sci. USA 110:14330-14335). Results were expressed as fluorescence intensity.

[2] = Adverse event and safety assessment of RAD001 in elderly volunteers; assay type: in vivo, human; conditions: for Incidence of treatment-related AE: Blood cholesterol increased / Incidence of treatment-related AE: Conjunctivitis / Incidence of treatment-related AE: Diarrhea / Incidence of treatment-related AE: Dry mouth / Incidence of treatment-related AE: Dyspepsia / Incidence of treatment-related AE: Erythema / Incidence of treatment-related AE: Fatigue / Incidence of treatment-related AE: Headache / Incidence of treatment-related AE: Insomnia / Incidence of treatment-related AE: Limb discomfort / Incidence of treatment-related AE: Low density lipoprotein increased / Incidence of treatment-related AE: Mouth ulceration / Incidence of treatment-related AE: Mucosal inflammation / Incidence of treatment-related AE: Neutropenia / Incidence of treatment-related AE: Oral pain / Incidence of treatment-related AE: Paresthesia oral / Incidence of treatment-related AE: Pruritus / Incidence of treatment-related AE: Stomatitis / Incidence of treatment-related AE: Thrombocytopenia / Incidence of treatment-related AE: Tongue ulceration / Incidence of treatment-related AE: Urinary tract infection / Treatment-related AEs: Patients with AE(s) / Treatment-related AEs: Total AE(s): N = 53
Description: Adverse event assessment and blood collection for hematologic and biochemical safety assessments were performed during study visits. Adverse event information was also collected in diaries that subjects filled out at home during the 6 weeks they were on study drug. Data on all adverse events were collected from the time of informed consent until 30 days after the last study visit. Events were classified by the investigators as mild, moderate or severe.

P70 S6K = experiment: Percent inhibition of P70 S6K activity in HeLa cells in vitro; conditions: concentrations from 30 pM to 4 nM

CO[C@H]1C[C@@H]2CC[C@@H](C)[C@@](O)(O2)C(=O)C(=O)N2CCCC[C@H]2C(=O)O[C@H]([C@H](C)C[C@@H]2CC[C@@H](OCCO)[C@H](OC)C2)CC(=O)[C@H](C)/C=C(\C)[C@@H](O)[C@@H](OC)C(=O)[C@H](C)C[C@H](C)/C=C/C=C/C=C/1C [RAD001, (1R,9S,12S,15R,16E,18R,19R,21R,23 S,24E,26E,28E,30S,32S,35R)-1,18-dihydroxy-12-{(1R)-2-[(1 S,3R,4R)-4-(2-hydroxyethoxy)-3-methoxycyclohexyl]-1-methylethyl}-19,30-dimethoxy-15,17,21,23,29,35-hexamethyl-11,36-dioxa-4-aza-tricyclo[30.3.1.04,9]hexatriaconta-16,24,26,28-tetraene-2,3,10,14,20-pentaone]
post-vaccination anti-influenza IgM and IgG levels [1]: No significant difference; also recorded: did not differ | Incidence of treatment-related AE: Blood cholesterol increased ([2]; 0.5 mg daily): 2 (3.8%) n (%) | Incidence of treatment-related AE: Conjunctivitis ([2]; 0.5 mg daily): 0 n (%) | Incidence of treatment-related AE: Diarrhea ([2]; 0.5 mg daily): 1 (1.9%) n (%) | Incidence of treatment-related AE: Dry mouth ([2]; 0.5 mg daily): 0 n (%) | Incidence of treatment-related AE: Dyspepsia ([2]; 0.5 mg daily): 0 n (%) | Incidence of treatment-related AE: Erythema ([2]; 0.5 mg daily): 0 n (%) | Incidence of treatment-related AE: Fatigue ([2]; 0.5 mg daily): 0 n (%) | Incidence of treatment-related AE: Headache ([2]; 0.5 mg daily): 0 n (%) | Incidence of treatment-related AE: Insomnia ([2]; 0.5 mg daily): 1 (1.9%) n (%) | Incidence of treatment-related AE: Limb discomfort ([2]; 0.5 mg daily): 0 n (%) | Incidence of treatment-related AE: Low density lipoprotein increased ([2]; 0.5 mg daily): 2 (3.8%) n (%) | Incidence of treatment-related AE: Mouth ulceration ([2]; 0.5 mg daily): 6 (11.3%) n (%) | Incidence of treatment-related AE: Mucosal inflammation ([2]; 0.5 mg daily): 0 n (%) | Incidence of treatment-related AE: Neutropenia ([2]; 0.5 mg daily): 0 n (%) | Incidence of treatment-related AE: Oral pain ([2]; 0.5 mg daily): 0 n (%) | Incidence of treatment-related AE: Paresthesia oral ([2]; 0.5 mg daily): 2 (3.8%) n (%) | Incidence of treatment-related AE: Pruritus ([2]; 0.5 mg daily): 0 n (%) | Incidence of treatment-related AE: Stomatitis ([2]; 0.5 mg daily): 0 n (%) | Incidence of treatment-related AE: Thrombocytopenia ([2]; 0.5 mg daily): 0 n (%) | Incidence of treatment-related AE: Tongue ulceration ([2]; 0.5 mg daily): 3 (5.7%) n (%) | Incidence of treatment-related AE: Urinary tract infection ([2]; 0.5 mg daily): 0 n (%) | Treatment-related AEs: Patients with AE(s) ([2]; 0.5 mg daily): 22 (41.5%) n (%) | Treatment-related AEs: Total AE(s) ([2]; 0.5 mg daily): 35 | Incidence of treatment-related AE: Blood cholesterol increased ([2]; 5 mg weekly): 2 (3.8%) n (%) | Incidence of treatment-related AE: Conjunctivitis ([2]; 5 mg weekly): 2 (3.8%) n (%) | Incidence of treatment-related AE: Diarrhea ([2]; 5 mg weekly): 4 (7.5%) n (%) | Incidence of treatment-related AE: Dry mouth ([2]; 5 mg weekly): 0 n (%) | Incidence of treatment-related AE: Dyspepsia ([2]; 5 mg weekly): 3 (5.7%) n (%) | Incidence of treatment-related AE: Erythema ([2]; 5 mg weekly): 2 (3.8%) n (%) | Incidence of treatment-related AE: Fatigue ([2]; 5 mg weekly): 2 (3.8%) n (%) | Incidence of treatment-related AE: Headache ([2]; 5 mg weekly): 2 (3.8%) n (%) | Incidence of treatment-related AE: Insomnia ([2]; 5 mg weekly): 2 (3.8%) n (%) | Incidence of treatment-related AE: Limb discomfort ([2]; 5 mg weekly): 2 (3.8%) n (%) | Incidence of treatment-related AE: Low density lipoprotein increased ([2]; 5 mg weekly): 1 (1.9%) n (%) | Incidence of treatment-related AE: Mouth ulceration ([2]; 5 mg weekly): 2 (3.8%) n (%) | Incidence of treatment-related AE: Mucosal inflammation ([2]; 5 mg weekly): 0 n (%) | Incidence of treatment-related AE: Neutropenia ([2]; 5 mg weekly): 0 n (%) | Incidence of treatment-related AE: Oral pain ([2]; 5 mg weekly): 2 (3.8%) n (%) | Incidence of treatment-related AE: Paresthesia oral ([2]; 5 mg weekly): 0 n (%) | Incidence of treatment-related AE: Pruritus ([2]; 5 mg weekly): 2 (3.8%) n (%) | Incidence of treatment-related AE: Stomatitis ([2]; 5 mg weekly): 0 n (%) | Incidence of treatment-related AE: Thrombocytopenia ([2]; 5 mg weekly): 0 n (%) | Incidence of treatment-related AE: Tongue ulceration ([2]; 5 mg weekly): 1 (1.9%) n (%) | Incidence of treatment-related AE: Urinary tract infection ([2]; 5 mg weekly): 0 n (%) | Treatment-related AEs: Patients with AE(s) ([2]; 5 mg weekly): 20 (37.7%) n (%) | Treatment-related AEs: Total AE(s) ([2]; 5 mg weekly): 46 | Incidence of treatment-related AE: Blood cholesterol increased ([2]; 20 mg weekly): 2 (3.8%) n (%) | Incidence of treatment-related AE: Conjunctivitis ([2]; 20 mg weekly): 0 n (%) | Incidence of treatment-related AE: Diarrhea ([2]; 20 mg weekly): 1 (1.9%) n (%) | Incidence of treatment-related AE: Dry mouth ([2]; 20 mg weekly): 2 (3.8%) n (%) | Incidence of treatment-related AE: Dyspepsia ([2]; 20 mg weekly): 2 (3.8%) n (%) | Incidence of treatment-related AE: Erythema ([2]; 20 mg weekly): 0 n (%) | Incidence of treatment-related AE: Fatigue ([2]; 20 mg weekly): 4 (7.5%) n (%) | Incidence of treatment-related AE: Headache ([2]; 20 mg weekly): 9 (17.0%) n (%) | Incidence of treatment-related AE: Insomnia ([2]; 20 mg weekly): 1 (1.9%) n (%) | Incidence of treatment-related AE: Limb discomfort ([2]; 20 mg weekly): 0 n (%) | Incidence of treatment-related AE: Low density lipoprotein increased ([2]; 20 mg weekly): 2 (3.8%) n (%) | Incidence of treatment-related AE: Mouth ulceration ([2]; 20 mg weekly): 9 (17.0%) n (%) | Incidence of treatment-related AE: Mucosal inflammation ([2]; 20 mg weekly): 2 (3.8%) n (%) | Incidence of treatment-related AE: Neutropenia ([2]; 20 mg weekly): 3 (5.7%) n (%) | Incidence of treatment-related AE: Oral pain ([2]; 20 mg weekly): 1 (1.9%) n (%) | Incidence of treatment-related AE: Paresthesia oral ([2]; 20 mg weekly): 0 n (%) | Incidence of treatment-related AE: Pruritus ([2]; 20 mg weekly): 1 (1.9%) n (%) | Incidence of treatment-related AE: Stomatitis ([2]; 20 mg weekly): 2 (3.8%) n (%) | Incidence of treatment-related AE: Thrombocytopenia ([2]; 20 mg weekly): 2 (3.8%) n (%) | Incidence of treatment-related AE: Tongue ulceration ([2]; 20 mg weekly): 0 n (%) | Incidence of treatment-related AE: Urinary tract infection ([2]; 20 mg weekly): 2 (3.8%) n (%) | Treatment-related AEs: Patients with AE(s) ([2]; 20 mg weekly): 27 (50.9%) n (%) | Treatment-related AEs: Total AE(s) ([2]; 20 mg weekly): 109 | deaths during the study ([2]; human, in vivo): No deaths | most common related AE ([2]; majority of mild severity): mouth ulcer | severe AEs assessed as related ([2]; mouth ulcers, 20 mg weekly): Only one severe AE | tolerability ([2]; particularly 0.5 mg daily and 5 mg weekly): well tolerated | serious adverse events (SAEs), relation to drug ([2]; three subjects, four SAEs): assessed as unrelated to RAD001 | effect on P70 S6K activity in cell lines (P70 S6K): partially inhibited P70 S6K activity
